The conditions of data set [1]: cited from earlier work.
The conditions of data set [2]: healthy volunteers, per label; cited from earlier work.
Data set [3] has as its system CYP3A4. To be noted: in vitro, high concentrations; cited from earlier work.
Data set [4] is described as follows: Phase I single-dose open-label pharmacokinetic study in participants with normal hepatic function and varying degrees of hepatic impairment. To be noted: for MRAUC (metabolite/parent ratio based on AUC): geometric mean (CV %); for tlast: plasma, single oral 200 mg belumosudil, fed, median. Format: in vivo, human. The source says:
The primary objective was to assess the pharmacokinetic (PK) of belumosudil following a single oral dose of belumosudil in participants with mild, moderate, or severe hepatic impairment compared to healthy participants with normal hepatic function.
The secondary objectives were: to evaluate the safety and tolerability of a single oral dose of belumosudil in participants with mild, moderate, or severe hepatic impairment, and in healthy participants with normal hepatic function; to assess the PK of the belumosudil metabolites following a single oral dose of belumosudil in participants with mild, moderate, or severe hepatic impairment compared to healthy participants with normal hepatic function.
Approximately 38 participants were to be enrolled into the following groups based on their hepatic function, as determined according to the Child-Pugh system. • Group 1 (n=approximately 16): matched healthy participants with normal hepatic function • Group 2 (n=8): participants with mild hepatic impairment (Child-Pugh Class A [score of 5 or 6]) • Group 3 (n=8): participants with moderate hepatic impairment (Child-Pugh Class B [score of 7 to 9]) • Group 4 (n=6): participants with severe hepatic impairment (Child-Pugh Class C [score of 10 to 14]).
Healthy participants with normal hepatic function (Group 1) were demographically matched by age (±10 years), sex, and body mass index (BMI; +20%) to participants with hepatic impairment (Groups 2, 3, and 4). Participants with normal hepatic function could be matched to multiple participants across the 3 hepatic impairment groups (mild, moderate, and severe), but could not be matched to more than 1 participant within the same impairment group.
Pharmacokinetic blood samples were obtained from predose until 48 hours postdose (Day 3).
Summary tables, mean (+standard deviation [SD]) figures, overlaying individual figures, and individual figures by hepatic function and time postdose were provided for plasma PK concentrations. Summary tables by hepatic function were provided for all PK parameters, with the exception of terminal phase regression-related diagnostic parameters (λz, λz upper, λ z lower, λz number of points, R2-adj, and % AUCextrap), which were listed only.
All other PK parameters were regarded as secondary and were not participant to inferential statistical analysis.

For data set [5] the following is noted: cited from earlier work. This is another data set of the same source.

Counter-ions that a name gives are not always drawn.

In the case of `C=CC(=O)N1CCC[C@@H](n2nc(-c3ccc(Oc4ccccc4)cc3)c3c(N)ncnc32)C1` [ibrutinib], in data set [1] (cGVHD patients with >25% body surface area erythematous rash or NIH mouth score >4), the “overall response rate (ORR)” value is given as 67%. In addition, the “discontinuation rate because of TEAEs” value in data set [1] (cGVHD patients) is reported as 43%.
On to `CO[C@H]1/C=C/O[C@@]2(C)Oc3c(C)c(O)c4c(O)c(c5c(nc6cc(C)ccn65)c4c3C2=O)NC(=O)/C(C)=C\C=C\[C@H](C)[C@H](O)[C@@H](C)[C@@H](O)[C@@H](C)[C@H](OC(C)=O)[C@@H]1C` [rifaximin], for which the “drug-drug interaction (DDI) effects” value in data set [2] was “not shown to have drug-drug interaction (DDI) effects”. Further, in data set [3], the CYP3A4 induction entry was “CYP3A4 inducer at high concentrations”.
As for `O=C(O)COc1cccc(-c2nc(Nc3ccc4[nH]ncc4c3)c3ccccc3n2)c1` [KD025m2], the “MRAUC (metabolite/parent ratio based on AUC)” value is 0.135 (73.8%) in data set [4] (mild hepatic impairment); 0.135 (73.8) [8] in data set [4] (mild hepatic impairment, listed as KD025 m2); 0.318 (70.5%) in data set [4] (moderate hepatic impairment); 0.318 (70.5) [7] in data set [4] (moderate hepatic impairment, listed as KD025 m2); 0.103 (68.8%) in data set [4] (normal hepatic function); 0.103 (68.8) [14] in data set [4] (normal hepatic function, listed as KD025 m2). In addition, the “MRAUC (metabolite/parent ratio based on AUC)” value is 0.680 (63.5%) in data set [4] (severe hepatic impairment) and 0.680 (63.5) [4] in data set [4] (severe hepatic impairment, listed as KD025 m2). The tlast in data set [4] (mild hepatic impairment) came to 23.9 h; in data set [4] (moderate hepatic impairment), 48.0 h; in data set [4] (normal hepatic function), 14.0 h; in data set [4] (severe hepatic impairment), 48.0 h.
With `CC(C)NC(=O)COc1cccc(-c2nc(Nc3ccc4[nH]ncc4c3)c3ccccc3n2)c1` [belumosudil mesylate, 2-{3-[4-(1H-indazol-5-ylamino)-2-quinazolinyl]phenoxy}-N-(propan-2-yl) acetamide methanesulfonate (1:1)], the “solubility in DMF” value in data set [5] (DMF) is “slightly soluble”. Further, the “solubility in DMSO” value in data set [5] (DMSO) is on record as “soluble”. In data set [5] (methanol), the solubility in methanol result is on record as “slightly soluble”. For the same molecule, the solubility in water entry in data set [5] (water) is reported as “practically insoluble”.

The record behind these values is patent US20260315475A1 (priority 2023, published 2026).
